# Measurements as given in patent US20140308317A1, “Polymeric Compounds And Methods Of Making And Using The Same” (CELLCEUTIX CORPORATION, priority 2012, published 2014).
# Columns and labels:
# [1] = system: Enterococcus faecalis ATCC 29212; experiment: Minimum Inhibitory Concentration (MIC), modified microbroth dilution; format: cell-based; settings: E. faecalis (29212), overnight incubation (18 hours)
# [2] = system: E. Coli ATCC 25922; experiment: as above; format: cell-based; settings: E. coli (25922), overnight incubation (18 hours)
# [3] = system: NIH/3T3 cells, CRL-1658; experiment: Cytotoxicity colorimetric (tetrazolium) assay; format: cell-based, mouse; settings: NIH/3T3 cells; one hour with compound in serum-free media
# In short: (§1)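 HepG2 (MEM, 10% FBS) and NIH/3T3 (DMEM, 10% BCS) monolayers seeded at 2×10^4 cells/well 24 h before use, then exposed to compounds for one hour in serum-free medium. After return to serum-containing medium, viable cells read by tetrazolium bioreduction to formazan. EC50 in μg/mL from four-parameter logistic fit.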
# [4] = Cytotoxicity colorimetric (tetrazolium) assay; format: cell-based, mouse; settings: mouse, NIH/3T3 cells (CRL-1658), NIH/3T3 cells; one hour with compound in serum-free media
# In short: as §1
# [5] = Cytotoxicity colorimetric (tetrazolium) assay; format: cell-based, human; settings: human, HepG2 cells (HB-8065), HepG2 cells; one hour with compound in serum-free media
# In short: as §1
# [6] = system: HepG2, HB-8065; experiment: Cytotoxicity colorimetric (tetrazolium) assay; format: cell-based, human; settings: HepG2 cells; one hour with compound in serum-free media
# In short: as §1
# [7] = system: Pseudomonas aeruginosa ATCC 10145; experiment: Minimum Inhibitory Concentration (MIC), modified microbroth dilution; format: cell-based; settings: P. aeruginosa (10145), overnight incubation (18 hours)
# [8] = system: Staphylococcus aureus ATCC 27660; experiment: as above; format: cell-based; settings: S. aureus (27660), overnight incubation (18 hours)
# [9] = system: Klebsiella pneumoniae ATCC 13883; experiment: as above; format: cell-based; settings: K. pneumoniae (13883), overnight incubation (18 hours)
# [10] = system: S. enteritidis ATCC 13076; experiment: Time-kill study; format: cell-based
# Description: Time-kill studies of the compounds versus S. enteritidis ATCC 13076, E. coli ATCC25922, E. coli (lab strain) D31, and S. aureus ATCC27660 were determined in a standard protocol by measuring the time it takes to reduce the initial inoculums 3 log units. Three mL of cation-adjusted Mueller-Hinton medium was inoculated with 20 μL of frozen bacterial stock and incubated at 37° C. on a shaker platform (at 250 rpm) overnight. The suspension was diluted to approximately 5×10^5 cfu/mL and treated with 2×, 5×, 10×, and 20×MIC (MIC=1 μg/mL). The compound stock solutions were prepared at 10 mg/mL in DMSO. Time points were collected and viable bacteria were counted on MH Agar plates after an 18 hour incubation.
# The time kill study was carried on Compound 200 against S. enteritidis ATCC 13076.
Structure (SMILES),"MIC50 ([1]; Enterococcus faecalis, ATCC29212, read-out: MIC50 E. faecalis) [µg/mL]","MIC50 ([2]; Escherichia coli, ATCC25922, read-out: MIC50 E. coli) [µg/mL]","MIC50 ([7]; Pseudomonas aeruginosa, ATCC10145, read-out: MIC50 P. Aeruginosa) [µg/mL]","MIC50 ([8]; Staphylococcus aureus, ATCC27660, read-out: MIC50 S. aureus) [µg/mL]","MIC50 ([9]; Klebsiella pneumoniae, ATCC13883, read-out: MIC50 K. Pnuemnoiae) [µg/mL]",MIC50 E. faecalis [1] [µg/mL],MIC50 E. coli [2] [µg/mL],MIC50 P. Aeruginosa [7] [µg/mL],MIC50 S. aureus [8] [µg/mL],MIC50 K. Pnuemnoiae [9] [µg/mL],EC50 NIH 3T3 (cytotoxicity) [3] [µg/mL],EC50 at 1 h [4] [µg/mL],EC50 at 1 h [5] [µg/mL],EC50 HepG2 (cytotoxicity) [6] [µg/mL],time at which bacterial growth was reduced more than 3 log ([10]; 2×MIC) [hour],time at which bacterial growth was reduced more than 3 log ([10]; 5×MIC) [hour],time at which bacterial growth was reduced more than 3 log ([10]; 10×MIC) [hour]
NCCc1cccc(-c2ccc3c(c2)C(=O)c2cc(-c4cccc(CCN)c4)cc(-c4cccc(CCN)c4)c2CC3)c1 [Compound 154],,,,,,6.25,1.56,6.25,0.78,6.25,53.4,,,85.4,,,
NCCCOc1cc(OCCCN)cc(-c2cc(-c3cc(-c4cc(OCCCN)cc(OCCCN)c4)cc(C(F)(F)F)c3)cc(C(F)(F)F)c2)c1 [Compound 146],,,,,,0.78 to 1.56,1.56 to 3.13,6.25,1.56,1.56 to 3.13,35.82,,,58.6,,,

# Now from value to molecule, other results behind:
"MIC50 ([1]; Enterococcus faecalis, ATCC29212, read-out: MIC50 E. faecalis) [µg/mL]","MIC50 ([2]; Escherichia coli, ATCC25922, read-out: MIC50 E. coli) [µg/mL]","MIC50 ([7]; Pseudomonas aeruginosa, ATCC10145, read-out: MIC50 P. Aeruginosa) [µg/mL]","MIC50 ([8]; Staphylococcus aureus, ATCC27660, read-out: MIC50 S. aureus) [µg/mL]","MIC50 ([9]; Klebsiella pneumoniae, ATCC13883, read-out: MIC50 K. Pnuemnoiae) [µg/mL]",MIC50 E. faecalis [1] [µg/mL],MIC50 E. coli [2] [µg/mL],MIC50 P. Aeruginosa [7] [µg/mL],MIC50 S. aureus [8] [µg/mL],MIC50 K. Pnuemnoiae [9] [µg/mL],Structure (SMILES),EC50 NIH 3T3 (cytotoxicity) [3] [µg/mL],EC50 at 1 h [4] [µg/mL],EC50 at 1 h [5] [µg/mL],EC50 HepG2 (cytotoxicity) [6] [µg/mL],time at which bacterial growth was reduced more than 3 log ([10]; 2×MIC) [hour],time at which bacterial growth was reduced more than 3 log ([10]; 5×MIC) [hour],time at which bacterial growth was reduced more than 3 log ([10]; 10×MIC) [hour]
12.5,3.13,6.25,0.098,12.5,,,,,,NCCCOc1cc(OCCCN)cc(-c2ccc3c(c2)C(=O)c2cc(-c4cc(OCCCN)cc(OCCCN)c4)ccc2CC3)c1 [Compound 156],88.1,49.4,74.2,143.7,,,
,,,,,0.39,0.78,3.13,0.049,1.56,NCCCOc1cc(OCCCN)cc(-c2ccc3sc4ccc(-c5cc(OCCCN)cc(OCCCN)c5)cc4c3c2)c1 [Compound 200],155,,,126,3.75,1.55,1.35
,,,,,>50,25,>50,3.13,>50,CCn1c2ccc(-c3cc(C(=O)NCCN)cc(C(=O)NCCN)c3)cc2c2cc(-c3cc(C(=O)NCCN)cc(C(=O)NCCN)c3)ccc21 [Compound 169],450,,,312,,,
